From PubChem BioAssay AID200 (DTP/NCI, 2004)
Values joined by “and” are separate entries in the source; they are usually repeats but may differ in a detail not shown here. Equal values may be shown once. Inconclusive results and toxic doses are left out.

Test system: B6C3F1 mice, B16 melanoma ip, median survival T/C
Assay: NCI In Vivo Anticancer Drug Screen. Data for tumor model B16 Melanoma (intraperitoneal) in B6C3F1 mice
Details: endpoint: median survival time, higher = longer survival
Summary of the method: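 Tumor-bearing mice received test compound; a separate group got vehicle only. Survival was then compared, with results reported as treated over control.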

[1] = dose: 50.0 mg/kg/injection, schedule: Q01DX009 (ip), vehicle: saline with Tween-80
[2] = dose: 1.56 mg/kg/injection, schedule: Q01DX009 (ip), vehicle: saline with Tween-80
[3] = dose: 3.12 mg/kg/injection, schedule: Q01DX009 (ip), vehicle: saline with Tween-80
[4] = dose: 6.25 mg/kg/injection, schedule: Q01DX009 (ip), vehicle: saline with Tween-80
[5] = dose: 12.5 mg/kg/injection, schedule: Q01DX009 (ip), vehicle: saline with Tween-80
[6] = dose: 25.0 mg/kg/injection, schedule: Q01DX009 (ip), vehicle: saline with Tween-80
[7] = dose: 6.25 mg/kg/injection, schedule: Q01DX009 (ip), vehicle: saline
[8] = dose: 12.5 mg/kg/injection, schedule: Q01DX009 (ip), vehicle: saline
[9] = dose: 25.0 mg/kg/injection, schedule: Q01DX009 (ip), vehicle: saline
[10] = dose: 12.5 mg/kg/injection, schedule: Q01DX009 (ip), vehicle: Klucel (hydroxypropylcellulose) (HPC)
[11] = dose: 25.0 mg/kg/injection, schedule: Q01DX009 (ip), vehicle: Klucel (hydroxypropylcellulose) (HPC)

SMILES: CC(C)(C)OC(=O)NC(Cc1cn(Cc2ccccc2)cn1)C(=O)O (stereo not given)
- T/C [1]: 102 % of control
- T/C (dose: 100.0 mg/kg/injection, schedule: Q01DX009 (ip), vehicle: saline with Tween-80): 97 % of control
- T/C (dose: 200.0 mg/kg/injection, schedule: Q01DX009 (ip), vehicle: saline with Tween-80): 100 % of control

SMILES: COc1cccc2c1C(=O)c1c(O)c3c(c(O)c1C2=O)C[C@@](O)(C(C)=O)C[C@@H]3OC1CC(N2CCCCC2)C(O)C(C)O1 (stereo not given in full)
- T/C (dose: 0.78 mg/kg/injection, schedule: Q01DX001 (ip), vehicle: water): 105 % of control
- T/C (dose: 1.56 mg/kg/injection, schedule: Q01DX001 (ip), vehicle: water): 115 % of control and 121 % of control
- T/C (dose: 3.12 mg/kg/injection, schedule: Q01DX001 (ip), vehicle: water): 116 % of control and 121 % of control

SMILES: CCOC1=Cc2c(oc3c(C(C)(C)C)cc(OCC)cc23)OC(C(C)(C)C)=C1
- T/C [2]: 97 % of control and 107 % of control
- T/C [3]: 97 % of control and 104 % of control
- T/C [4]: 102 % of control
- T/C [5]: 97 % of control and 106 % of control
- T/C [6]: 113 % of control and 91 % of control
- T/C [1]: 89 % of control and 101 % of control

SMILES: O=C(Nc1cccnc1)c1ccc([N+](=O)[O-])s1
- T/C (dose: 1.13 mg/kg/injection, schedule: Q01DX009 (ip), vehicle: saline): 96 % of control
- T/C (dose: 1.88 mg/kg/injection, schedule: Q01DX009 (ip), vehicle: saline): 92 % of control
- T/C (dose: 3.13 mg/kg/injection, schedule: Q01DX009 (ip), vehicle: saline): 97 % of control
- T/C (dose: 5.21 mg/kg/injection, schedule: Q01DX009 (ip), vehicle: saline): 94 % of control
- T/C [7]: 103 % of control
- T/C (dose: 8.69 mg/kg/injection, schedule: Q01DX009 (ip), vehicle: saline): 89 % of control
- T/C [8]: 97 % of control
- T/C [9]: 87 % of control and 99 % of control

SMILES: COc1c(CNC(=O)CCl)cc2[nH]c(C)cc2c1CNC(=O)CCl
- T/C [10]: 104 % of control
- T/C [11]: 105 % of control
- T/C (dose: 100.0 mg/kg/injection, schedule: Q01DX009 (ip), vehicle: Klucel (hydroxypropylcellulose) (HPC)): 116 % of control

SMILES: Cc1c2ccnc(C(N)=O)c2c(C)c2c1[nH]c1ccccc12
- T/C (dose: 62.0 mg/kg/injection, schedule: Q04DX003 (ip), vehicle: distilled water + Tween-80): 96 % of control
- T/C (dose: 125.0 mg/kg/injection, schedule: Q04DX003 (ip), vehicle: distilled water + Tween-80): 120 % of control
- T/C (dose: 200.0 mg/kg/injection, schedule: Q01DX009 (ip), vehicle: distilled water + Tween-80): 117 % of control
- T/C (dose: 250.0 mg/kg/injection, schedule: Q04DX003 (ip), vehicle: distilled water + Tween-80): 106 % of control
- T/C (dose: 400.0 mg/kg/injection, schedule: Q01DX009 (ip), vehicle: distilled water + Tween-80): 123 % of control
- T/C (dose: 500.0 mg/kg/injection, schedule: Q04DX003 (ip), vehicle: distilled water + Tween-80): 100 % of control
- T/C (dose: 1000.0 mg/kg/injection, schedule: Q04DX003 (ip), vehicle: distilled water + Tween-80): 124 % of control

SMILES: COc1cc(C2c3cc4c(cc3C(O)C(CO)C2CO)OCO4)cc(OC)c1OC (stereo not given)
- T/C [5]: 111 % of control and 113 % of control
- T/C [6]: 113 % of control

SMILES: CC1=C(CCC(=O)O)c2cc3nc(cc4[nH]c(cc5[nH]c(cc1n2)c(C)c5C(C)O)c(C)c4C(C)O)C(C)=C3CCC(=O)O (stereo not given)
- T/C (dose: 3.13 mg/kg/injection, schedule: Q01DX009 (ip), vehicle: Klucel (hydroxypropylcellulose) (HPC)): 111 % of control
- T/C (dose: 6.25 mg/kg/injection, schedule: Q01DX009 (ip), vehicle: Klucel (hydroxypropylcellulose) (HPC)): 115 % of control
- T/C [10]: 107 % of control
- T/C [11]: 104 % of control

SMILES: CC[C@]1(O)C[C@H](OC2CC(N(C)C)C(OC3CC(O)C(O)C(C)O3)C(C)O2)c2c(cc3c(c2O)C(=O)c2c(O)ccc(O)c2C3=O)[C@H]1C(=O)OC (stereo not given in full)
- T/C (dose: 0.12 mg/kg/injection, schedule: Q01DX009 (ip), vehicle: Klucel (hydroxypropylcellulose) (HPC)): 106 % of control
- T/C (dose: 0.25 mg/kg/injection, schedule: Q01DX009 (ip), vehicle: Klucel (hydroxypropylcellulose) (HPC)): 115 % of control
- T/C (dose: 1.0 mg/kg/injection, schedule: Q01DX009 (ip), vehicle: Klucel (hydroxypropylcellulose) (HPC)): 177 % of control
- T/C (dose: 2.0 mg/kg/injection, schedule: Q01DX009 (ip), vehicle: Klucel (hydroxypropylcellulose) (HPC)): 191 % of control

SMILES: CC(C)CCC(=O)c1ccoc1
- T/C (dose: 0.12 mg/kg/injection, schedule: Q03HX027 (ip), vehicle: saline with Tween-80): 100 % of control
- T/C (dose: 0.25 mg/kg/injection, schedule: Q01DX009 (ip), vehicle: saline with Tween-80): 100 % of control
- T/C (dose: 0.25 mg/kg/injection, schedule: Q03HX027 (ip), vehicle: saline with Tween-80): 98 % of control
- T/C (dose: 0.5 mg/kg/injection, schedule: Q01DX009 (ip), vehicle: saline with Tween-80): 100 % of control
- T/C (dose: 0.5 mg/kg/injection, schedule: Q03HX027 (ip), vehicle: saline with Tween-80): 107 % of control
- T/C (dose: 1.0 mg/kg/injection, schedule: Q01DX009 (ip), vehicle: saline with Tween-80): 102 % of control
- T/C (dose: 1.0 mg/kg/injection, schedule: Q03HX027 (ip), vehicle: saline with Tween-80): 88 % of control
- T/C (dose: 2.0 mg/kg/injection, schedule: Q01DX009 (ip), vehicle: saline with Tween-80): 102 % of control
- T/C (dose: 2.0 mg/kg/injection, schedule: Q03HX027 (ip), vehicle: saline with Tween-80): 107 % of control

SMILES: CC(=O)OC1(C)CC(C)C(=O)C(C(O)CC2CC(=O)NC(=O)C2)C1 (stereo not given)
- T/C (dose: 15.6 micrograms/kg/injection, schedule: Q01DX009 (ip), vehicle: saline): 111 % of control
- T/C (dose: 31.3 micrograms/kg/injection, schedule: Q01DX009 (ip), vehicle: saline): 107 % of control
- T/C (dose: 62.5 micrograms/kg/injection, schedule: Q01DX009 (ip), vehicle: saline): 104 % of control
- T/C (dose: 125.0 micrograms/kg/injection, schedule: Q01DX009 (ip), vehicle: saline): 108 % of control
- T/C (dose: 250.0 micrograms/kg/injection, schedule: Q01DX009 (ip), vehicle: saline): 117 % of control

SMILES: CC(C)(C)C1CCCCC1
- T/C [10]: 97 % of control
- T/C [11]: 92 % of control
- T/C (dose: 50.0 mg/kg/injection, schedule: Q01DX009 (ip), vehicle: Klucel (hydroxypropylcellulose) (HPC)): 88 % of control

SMILES: CSc1ccc2c(c1)C(N1CCN(C)CC1)Cc1ccccc1S2 (stereo not given)
- T/C [2]: 105 % of control
- T/C [3]: 108 % of control
- T/C [4]: 105 % of control
- T/C [5]: 98 % of control
- T/C [6]: 94 % of control
- T/C [1]: 88 % of control

SMILES: CC(=O)N(C)c1ccc(Nc2cc(C)[nH]c3ccc4ncnc4c23)cc1
- T/C [7]: 122 % of control
- T/C [8]: 171 % of control and 178 % of control
- T/C [9]: 177 % of control and 198 % of control
- T/C (dose: 50.0 mg/kg/injection, schedule: Q01DX009 (ip), vehicle: saline): 177 % of control and 184 % of control

SMILES: CNC(=O)OCc1c(COC(=O)NC)c(-c2ccccc2)n(C)c1-c1ccccc1
- T/C (dose: 12.5 mg/kg/injection, schedule: Q01DX009 (ip), vehicle: distilled water + Tween-80): 172 % of control
- T/C (dose: 25.0 mg/kg/injection, schedule: Q01DX009 (ip), vehicle: distilled water + Tween-80): 177 % of control

SMILES: O=NN(CCCl)C(=O)NC1CCCCC1
- T/C (dose: 3.12 mg/kg/injection, schedule: Q01DX001 (ip), vehicle: carboxymethylcellulose (CMC)): 103 % of control
- T/C (dose: 3.12 mg/kg/injection, schedule: Q01DX005 (ip), vehicle: carboxymethylcellulose (CMC)): 103 % of control
- T/C (dose: 6.25 mg/kg/injection, schedule: Q01DX001 (ip), vehicle: carboxymethylcellulose (CMC)): 99 % of control
- T/C (dose: 6.25 mg/kg/injection, schedule: Q01DX005 (ip), vehicle: carboxymethylcellulose (CMC)): 112 % of control
- T/C (dose: 12.5 mg/kg/injection, schedule: Q01DX001 (ip), vehicle: carboxymethylcellulose (CMC)): 98 % of control
- T/C (dose: 12.5 mg/kg/injection, schedule: Q01DX005 (ip), vehicle: carboxymethylcellulose (CMC)): 114 % of control
- T/C (dose: 32.0 mg/kg/injection, schedule: Q01DX009 (ip), vehicle: Klucel (hydroxypropylcellulose) (HPC)): 86 % of control
- T/C (dose: 50.0 mg/kg/injection, schedule: Q01DX001 (ip), vehicle: carboxymethylcellulose (CMC)): 177 % of control
- T/C (dose: 50.0 mg/kg/injection, schedule: Q01DX005 (ip), vehicle: carboxymethylcellulose (CMC)): 172 % of control
- T/C (dose: 100.0 mg/kg/injection, schedule: Q01DX001 (ip), vehicle: carboxymethylcellulose (CMC)): 204 % of control
- T/C (dose: 100.0 mg/kg/injection, schedule: Q01DX005 (ip), vehicle: carboxymethylcellulose (CMC)): 107 % of control

SMILES: O=S1(=O)C=C(c2ccccc2)C(c2ccccc2)=C1
- T/C [3]: 92 % of control and 98 % of control
- T/C [4]: 95 % of control
- T/C [5]: 113 % of control and 94 % of control
- T/C [6]: 106 % of control
- T/C [1]: 119 % of control
